Measured values taken from patent publication US6794491B1, “Polypeptides, their production and use” (Takeda Chemical Industries, Ltd., priority 1995, dated 2004).
Where no end group is shown, it is not given here.

Experiments:
[1] = motor activity of mouse after administration to lateral ventricle; assay type: in vivo, ICR male mice; details: for rearing behavior (increasing tendency) / spontaneous motor activity / rearing behavior: lateral ventricle, mouse
Experimental: The effects of administration of […] to mouse lateral ventricle on motor activity were studied. The mature ICR male mice (weight at operation: about 35 g) were anesthetized by intraperitoneal administration of 50 mg/kg of pentobarbital, and then fixed on a stereotaxic apparatus. The skull of a said mouse was exposed, then a hole was made by dental drill for guide-cannulization into the left lateral ventricle. The tip of a stainless-steel guide-cannula (24 G, length: 5 mm) for drug injection to lateral ventricle, was inserted to the position of AP: +0.6 mm (from bregma), L: left 1 mm and H: −1 mm (from dura matter). The guide-cannula was fixed onto the skull with adhesive. The cannula-implanted mice were housed as described above and were used for behavioral analysis at least 3 days after the operation.
Motor activity such as spontaneous motor activity and rearing was measured while each mouse was in a transparent acrylic cage (24×37×30 cm) within a soundproofed, illuminated (light up: at 6-18 o'clock) box. Tap water and laboratory chow were available ad libitum. Motor activity was measured by means of a Supermex (Muromachi Kikai). Drugs and PBS were administered at 2:30±30 p.m. At the administration, a stainless-steel micro-injection cannula (30 G, length: 6 mm) was inserted into the guide-cannula. The micro-injection cannula was connected to a microsyringe pump with Teflon tube, and injection of PBS or a peptide dissolved in PBS lasted for 2 minutes at a speed of 2 μl/min. The micro-injection cannula was withdrawn after over a period of 2 minutes from end of injection, then motor activity was meausred.
(§1) The results are expressed as a mean±S.E.M. Student's t test was used to determine the significance of differences between values from the mice treated with a peptide and the PBS-injected controls. For the purpose of this analysis, p<0.05 was assumed to be the minimal level of significance.

[2] = reserpine-induced hypothermia in mice; assay type: in vivo, ICR male mice; details: lateral ventricle
Experimental: The mature ICR male mice (weight at operation: about 35 g) were anesthetized by administration of pentobarbital (50 mg/kg, i.p.), and then fixed on stereotaxic apparatus. The skull of a said mouse was exposed, then a hole was made by dental drill for guide-cannulization into the left lateral ventricle. The tip of a stainless-steel guide-cannula (24 G, length: 5 mm) for drug injection to lateral ventricle, was inserted to the position of AP: +0.6 mm (from bregma), L: left 1 mm and H: −1 mm (from dura matter). The guide-cannula was fixed onto the skull with adhesive. The cannula-implanted mice were housed as described above and were used for measurements of body temperature at least 3 days after the operation. Reserpine (Apoplon; Daiichi Pharmaceutical) was administered to mice at a dose of 3 mg/kg, s.c., and after 15 hours, each mouse was placed in a cage for the measurement. Then a stainless-steel micro-injection cannula (30 G, length: 6 mm) was inserted into the guide-cannula. The micro-injection cannula was connected to a microsyringe pump with Teflon tube, and injection of PBS or a peptide dissolved in PBS lasted for 2 minutes at a speed of 1 μl/min. The micro-injection cannula was withdrawn after over a period of 2 minutes from end of injection, than the temperature in rectum was measured.
as §1

[3] = plasma pituitary hormone level after administration into the third ventricle, pentobarbital anesthesia; assay type: in vivo, male Wistar rats
Experimental: The inventors explored the effect of 19P2-L31 administered into the third ventricle on pituitary hormone levels in the plasma. Mature male Wistar rats (body weights at operation: 290-350 g) were anesthetized with pentobarbital, 50 mg/kg i.p., and each immobilized in a rat brain stereotaxic apparatus. The incisor bar was set 3.3 mm lower from the interaural line. The skull was exposed, and using a dental drill a hole was made on the bone for implantation of a guide cannula. In addition, an anchor screw was buried in one position around the hole. A stainless-steel guide cannula, AG-12 (0.4 mm in. dia., 0.5 mm out. dia., EICOM), was inserted in such a manner that its tip would be situated in the upper part of the third ventricle. With reference to the atlas of Paxinos and Watson (1986), the stereotaxic coordinates were AP: +7.2 mm (from interaural line), L: 0.0 mm, and H: +2.0 mm (from interaural line). The guide cannula was secured to the skull using an instant adhesive, a dental cement, and an anchor piece. A stainless-steel dummy cannula, AD-12 (0.35 mm out. dia., EICOM), was then passed through the guide cannula and locked in position with a cap nut (EICOM). After the operation the rats were housed in individual cages and kept for at least 3 days for recuperation before starting the experiment.
The operated rat was anesthetized with pentobarbital 50 mg/kg i.p. and immobilized in dorsal position. After the bilateral jugular veins were exposed, 400 μl of blood was drawn using a 1 ml tuberculin syringe and a 24-G needle (both by Termo). To prevent clotting, the syringe was filled with 20 μl of saline containing 200 U/ml of heparin beforehand. The cap nut and dummy cannula were removed from the rat skull and, instead, a stainless steel microinjection cannula (0.17 mm in. dia., 0.35 mm out. dia., EICOM) connected to Teflon tube (50 cm long, 0.1 mm in. dia., 0.4 mm out. dia., EICOM) was inserted. The length of the microinjection cannula was adjusted beforehand so that its tip would be emergent from the guide cannula by 1 mm. One end of the Teflon tube was connected to a microsyringe pump and either PBS or 19P2-L31 dissolved in PBS was injected, in a total volume of 10 μl, into the third ventricle at a flow rate of 2.5 μl/min. After a standby time of 1 minute following infusion, the microinjection cannula was disconnected and the dummy cannula was reinstated and locked in position with a cap nut. Immediately before initiation of intraventricular administration and 10, 20, 30, 40, and 60 minutes after initiation of administration, 400 μl portions of blood were drawn from the jugular vein. Each blood sample was centrifuged (5,000 rpm, 10 min.) with a high-speed refrigerated microcentrifuge (MR-150, Tommy Seiko) and the supernatant (plasma) was recovered. The amounts of pituitary hormones [prolactin, luteinizing hormone (LH), adrenocorticotropic hormone (ACTH), thyroid-stimulating hormone (TSH), and growth hormone (GH)] in the plasma were respectively determined by radioimmunoassays.
The results were expressed as a mean±S.E.M. To test for significant difference between the group treated with 19P2-L31 dissolved in PBS and the control group treated with PBS alone, Student's t-test was used. According to the two-tailed test, p<0.05 was assumed to be the minimal level of significance.

[4] = 50 nmol into the third ventricle, anesthetized rats

Ser-Arg-Ala-His-Gln-His-Ser-Met-Glu-Ile-Arg-Thr-Pro-Asp-Ile-Asn-Pro-Ala-Trp-Tyr-Ala-Gly-Arg-Gly-Ile-Arg-Pro-Val-Gly-Arg-Phe-NH2 (SRAHQHSMEIRTPDINPAWYAGRGIRPVGRF-NH2) [19P2-L31, synthetic ligand polypeptide]
rearing behavior (increasing tendency) ([1]; 0.01 nmol): not statistically significant
spontaneous motor activity ([1]; 0.01 nmol, at 20 min and 40 min after injection): significant increase
rearing behavior (increasing tendency) ([1]; 0.1 nmol): not statistically significant
spontaneous motor activity ([1]; 0.1 nmol, at 25 min, 40 min and 70 min after injection): significant increase
spontaneous motor activity ([1]; 1 nmol): did not cause statistically significant change
rearing behavior ([1]; 1 nmol, at only 105 min after injection): significant decrease
rearing behavior ([1]; 10 nmol): significant variation
spontaneous motor activity ([1]; 10 nmol): significant increase
amount of activity (motor activity) ([1]; 0.01-10 nmol, lateral ventricle of mice, summary): an increase in the amount of activity was found
temperature variation versus PBS-injected control ([2]; 1 nmol, reserpine-treated mice): no statistically significant difference
body temperature lowered by reserpine ([2]; 10 nmol, mice, 15 hours after reserpine 3 mg/kg s.c., versus PBS): increased significantly
time of maximum increase of body temperature after administration ([2]; 10 nmol, reserpine-treated mice): 45 min
plasma ACTH [3, 4]: none showed significant changes
plasma LH [3, 4]: none showed significant changes
plasma TSH [3, 4]: none showed significant changes
plasma prolactin [3, 4]: none showed significant changes
plasma GH level ([3]; 50 nmol into the third ventricle, anesthetized rats, 10, 30, and 40 minutes after administration, not statistically significant): Tendencies toward decrease
plasma GH level ([3]; 50 nmol into the third ventricle, anesthetized rats, 20 minutes after administration, versus control): significantly decreased
plasma GH level ([3]; 50 nmol into the third ventricle, anesthetized rats, 60 minutes after administration): no difference from the control group
plasma growth hormone level ([3]; injected into the third ventricle of rats, summary): depressed
